Converted amounts (≈) assume the structure as drawn.
Assays:
Staphylococcus aureus [1] = test: Antibacterial activity against methicillin-resistant Staphylococcus aureus clinical isolate after 24 hr by two-fold serial dilution method; type: functional
Mus musculus [2] = test: Anti-inflammatory activity in Swiss albino Mus musculus (mouse) assessed as inhibition of carrageenan-induced paw edema at 100 mg/kg, po administered 60 min prior to crrageenan-challenge measured at 360 min relative to control; type: functional
Pichia kudriavzevii = test: Antifungal activity against Pichia kudriavzevii ATCC 6258 after 48 hr by two-fold serial dilution method; type: functional; details: ATCC 6258, 48 h
Pseudomonas aeruginosa [3] = test: Antibacterial activity against Pseudomonas aeruginosa cloinical isolate after 24 hr by two-fold serial dilution method; type: functional
Mus musculus [4] = test: Ulcerogenic activity in p-benzoquinone-challenged Swiss albino Mus musculus (mouse) at 100 mg/kg, po administered 60 min prior to p-benzoquinone-challenge by microscopic analysis; type: toxicity, organism-based; set-up: dose 100 mg/kg, route oral; details: in vivo, 1 h
Mus musculus [5] = test: Anti-inflammatory activity in Swiss albino Mus musculus (mouse) assessed as inhibition of carrageenan-induced paw edema at 100 mg/kg, po administered 60 min prior to crrageenan-challenge measured at 270 min relative to control; type: functional
Enterococcus faecalis [6] = test: Antibacterial activity against Enterococcus faecalis ATCC 29212 after 24 hr by two-fold serial dilution method; type: functional; details: ATCC 29212, 24 h
Mus musculus [7] = test: Analgesic activity in Swiss albino Mus musculus (mouse) assessed as inhibition of p-benzoquinone-induced writhing at 100 mg/kg, po administered 60 min prior to p-benzoquinone-challenge measured up to 15 min relative to control; type: functional
Enterococcus faecalis [8] = test: Antibacterial activity against Enterococcus faecalis clinical isolate after 24 hr by two-fold serial dilution method; type: functional
Pseudomonas aeruginosa [9] = test: Antibacterial activity against Pseudomonas aeruginosa ATCC 27853 after 24 hr by two-fold serial dilution method; type: functional; details: ATCC 27853, 24 h
Escherichia coli [10] = test: Antibacterial activity against Escherichia coli ATCC 25922 after 24 hr by two-fold serial dilution method; type: functional; details: ATCC 25922, 24 h
Escherichia coli [11] = test: Antibacterial activity against Escherichia coli clinical isolate expressing extended spectrum beta-lactamase after 24 hr by two-fold serial dilution method; type: functional
Candida albicans = test: Antifungal activity against Candida albicans ATCC 10231 after 48 hr by two-fold serial dilution method; type: functional; details: ATCC 10231, 48 h
Staphylococcus aureus [12] = test: Antibacterial activity against Staphylococcus aureus ATCC 29213 after 24 hr by two-fold serial dilution method; type: functional; details: ATCC 29213, 24 h
Mus musculus [13] = test: Anti-inflammatory activity in Swiss albino Mus musculus (mouse) assessed as inhibition of carrageenan-induced paw edema at 100 mg/kg, po administered 60 min prior to crrageenan-challenge measured at 180 min relative to control; type: functional
Mus musculus [14] = test: Anti-inflammatory activity in Swiss albino Mus musculus (mouse) assessed as inhibition of carrageenan-induced paw edema at 100 mg/kg, po administered 60 min prior to crrageenan-challenge measured at 90 min relative to control; type: functional

SMILES | MIC (Staphylococcus aureus [1]) [µg/mL] | inhibition in vivo at 100 mg/kg (Mus musculus [2]) [%] | MIC (Pichia kudriavzevii) [µg/mL] | MIC (Pseudomonas aeruginosa [3]) [µg/mL] | Activity (Mus musculus [4]) | inhibition in vivo at 100 mg/kg (Mus musculus [5]) [%] | MIC (Enterococcus faecalis [6]) [µg/mL] | inhibition in vivo at 100 mg/kg (Mus musculus [7]) [%] | MIC (Enterococcus faecalis [8]) [µg/mL] | MIC (Pseudomonas aeruginosa [9]) [µg/mL] | MIC (Escherichia coli [10]) [µg/mL] | MIC (Escherichia coli [11]) [µg/mL] | MIC (Candida albicans) [µg/mL] | MIC (Staphylococcus aureus [12]) [µg/mL] | inhibition in vivo at 100 mg/kg (Mus musculus [13]) [%] | inhibition in vivo at 100 mg/kg (Mus musculus [14]) [%]
O=c1ccc(-c2ccccc2)nn1CCN1CCN(c2ccccc2)CC1 | 128 (≈ 355 µM) | 3.1 | 32 (≈ 88.8 µM) | 64 (≈ 178 µM) | Non-toxic | 6.4 | 64 (≈ 178 µM) | 10.7 | 64 (≈ 178 µM) | 64 (≈ 178 µM) | 64 (≈ 178 µM) | 64 (≈ 178 µM) | 32 (≈ 88.8 µM) | 64 (≈ 178 µM) |  | 
COc1ccc(N2CCN(CCn3nc(-c4ccccc4)ccc3=O)CC2)cc1 | 128 (≈ 328 µM) |  | 32 (≈ 81.9 µM) | 64 (≈ 164 µM) | Non-toxic |  | 64 (≈ 164 µM) | 8.6 | 64 (≈ 164 µM) | 64 (≈ 164 µM) | 64 (≈ 164 µM) | 64 (≈ 164 µM) | 32 (≈ 81.9 µM) | 64 (≈ 164 µM) |  | 
COc1ccc(-c2ccc(=O)n(CCN3CCN(c4ccccc4)CC3)n2)cc1 | 128 (≈ 328 µM) |  | 32 (≈ 81.9 µM) | 64 (≈ 164 µM) | Non-toxic |  | 64 (≈ 164 µM) | 18.4 | 64 (≈ 164 µM) | 64 (≈ 164 µM) | 64 (≈ 164 µM) | 64 (≈ 164 µM) | 32 (≈ 81.9 µM) | 64 (≈ 164 µM) | 12.6 | 11.9
COc1ccc(-c2ccc(=O)n(CCN3CCN(c4ccc(Cl)cc4)CC3)n2)cc1 | 128 (≈ 301 µM) | 26.2 | 32 (≈ 75.3 µM) | 64 (≈ 151 µM) | Toxic | 27.5 | 64 (≈ 151 µM) | 44.4 | 64 (≈ 151 µM) | 64 (≈ 151 µM) | 64 (≈ 151 µM) | 64 (≈ 151 µM) | 32 (≈ 75.3 µM) | 64 (≈ 151 µM) | 19.8 | 16.9
COc1ccc(-c2ccc(=O)n(CCN3CCN(c4ccc(F)cc4)CC3)n2)cc1 | 128 (≈ 313 µM) | 18.3 | 32 (≈ 78.3 µM) | 64 (≈ 157 µM) | Toxic | 22.9 | 64 (≈ 157 µM) | 47.6 | 64 (≈ 157 µM) | 64 (≈ 157 µM) | 64 (≈ 157 µM) | 64 (≈ 157 µM) | 32 (≈ 78.3 µM) | 64 (≈ 157 µM) | 15.5 | 16.2
COc1ccc(-c2ccc(=O)n(CCN3CCN(c4ccc(OC)cc4)CC3)n2)cc1 | 128 (≈ 304 µM) | 7.9 | 32 (≈ 76.1 µM) | 64 (≈ 152 µM) | Non-toxic | 13.6 | 64 (≈ 152 µM) | 5.6 | 64 (≈ 152 µM) | 64 (≈ 152 µM) | 64 (≈ 152 µM) | 64 (≈ 152 µM) | 32 (≈ 76.1 µM) | 64 (≈ 152 µM) |  | 
O=c1ccc(-c2ccc(Cl)cc2)nn1CCN1CCN(c2ccccc2)CC1 | 128 (≈ 324 µM) |  | 32 (≈ 81 µM) | 64 (≈ 162 µM) | Non-toxic | 7.4 | 64 (≈ 162 µM) | 20.1 | 64 (≈ 162 µM) | 64 (≈ 162 µM) | 64 (≈ 162 µM) | 64 (≈ 162 µM) | 32 (≈ 81 µM) | 64 (≈ 162 µM) | 1.4 | 
O=c1ccc(-c2ccc(Cl)cc2)nn1CCN1CCN(c2ccc(Cl)cc2)CC1 | 128 (≈ 298 µM) | 28.2 | 32 (≈ 74.5 µM) | 64 (≈ 149 µM) | Non-toxic | 31 | 64 (≈ 149 µM) | 53.2 | 64 (≈ 149 µM) | 64 (≈ 149 µM) | 64 (≈ 149 µM) | 64 (≈ 149 µM) | 32 (≈ 74.5 µM) | 64 (≈ 149 µM) | 29.7 | 20.6
O=c1ccc(-c2ccc(Cl)cc2)nn1CCN1CCN(c2ccc(F)cc2)CC1 | 128 (≈ 310 µM) | 28.8 | 32 (≈ 77.5 µM) | 64 (≈ 155 µM) | Non-toxic | 35.3 | 64 (≈ 155 µM) | 57.5 | 64 (≈ 155 µM) | 64 (≈ 155 µM) | 64 (≈ 155 µM) | 64 (≈ 155 µM) | 32 (≈ 77.5 µM) | 64 (≈ 155 µM) | 28.3 | 29.5
COc1ccc(N2CCN(CCn3nc(-c4ccc(Cl)cc4)ccc3=O)CC2)cc1 | 128 (≈ 301 µM) | 15.5 | 32 (≈ 75.3 µM) | 64 (≈ 151 µM) | Non-toxic | 18.5 | 64 (≈ 151 µM) | 30.2 | 64 (≈ 151 µM) | 64 (≈ 151 µM) | 64 (≈ 151 µM) | 64 (≈ 151 µM) | 32 (≈ 75.3 µM) | 64 (≈ 151 µM) | 12.3 | 4.7
C[C@@H]1[C@H](O)[C@@H](C)/C=C/C=C/C=C/C=C/C=C/C=C/C=C/[C@H](O[C@@H]2O[C@H](C)[C@@H](O)[C@H](N)[C@@H]2O)C[C@@H]2O[C@](O)(C[C@@H](O)C[C@@H](O)[C@H](O)CC[C@@H](O)C[C@@H](O)CC(=O)O[C@H]1C)C[C@H](O)[C@H]2C(=O)O [AMPHOTERICIN B] |  |  | 0.5 (≈ 0.541 µM) |  |  |  |  |  |  |  |  |  | < 0.25 |  |  | 
CC1(C)S[C@@H]2[C@H](NC(=O)[C@H](N)c3ccccc3)C(=O)N2[C@H]1C(=O)O [AMPICILLIN] | 32 (≈ 91.6 µM) |  |  |  |  |  | 2 (≈ 5.72 µM) |  | 4 (≈ 11.4 µM) |  | 8 (≈ 22.9 µM) | 64 (≈ 183 µM) |  | 2 (≈ 5.72 µM) |  | 
CC(=O)Oc1ccccc1C(=O)O [ASPIRIN] |  |  |  |  | Toxic |  |  | 45.9 |  |  |  |  |  |  |  | 
OC(Cn1cncn1)(Cn1cncn1)c1ccc(F)cc1F [FLUCONAZOLE] |  |  | 64 (≈ 209 µM) |  |  |  |  |  |  |  |  |  | 1 (≈ 3.27 µM) |  |  | 
CC1COc2c(N3CCN(C)CC3)c(F)cc3c(=O)c(C(=O)O)cn1c23 (stereo unspecified) [OFLOXACIN] | 2 (≈ 5.53 µM) |  |  | 32 (≈ 88.6 µM) |  |  | 1 (≈ 2.77 µM) |  | 2 (≈ 5.53 µM) |  |  | 16 (≈ 44.3 µM) |  | 0.5 (≈ 1.38 µM) |  | 

Source: ChEMBL document CHEMBL3045332, “Synthesis of some new 2,6-disubstituted-3(2H)-pyridazinone derivatives and investigation of their analgesic, anti-inflammatory and antimicrobial activities” (Med Chem Res, 2013)
